The source made the active and inactive calls. No cut-off for these calls is given here.
Columns and labels:
[1] = biological target: T1, Retinoic acid receptor RXR-alpha (Homo sapiens) (UniProt P19793); assay: Antagonist activity at human RXRalpha expressed in HEK293T cells assessed as inhibition of 9-cis-retinoic acid-induced response at 1 uM after 24 hrs by luciferase reporter gene assay; assay type: cell-based
T1 sequence (whole entry): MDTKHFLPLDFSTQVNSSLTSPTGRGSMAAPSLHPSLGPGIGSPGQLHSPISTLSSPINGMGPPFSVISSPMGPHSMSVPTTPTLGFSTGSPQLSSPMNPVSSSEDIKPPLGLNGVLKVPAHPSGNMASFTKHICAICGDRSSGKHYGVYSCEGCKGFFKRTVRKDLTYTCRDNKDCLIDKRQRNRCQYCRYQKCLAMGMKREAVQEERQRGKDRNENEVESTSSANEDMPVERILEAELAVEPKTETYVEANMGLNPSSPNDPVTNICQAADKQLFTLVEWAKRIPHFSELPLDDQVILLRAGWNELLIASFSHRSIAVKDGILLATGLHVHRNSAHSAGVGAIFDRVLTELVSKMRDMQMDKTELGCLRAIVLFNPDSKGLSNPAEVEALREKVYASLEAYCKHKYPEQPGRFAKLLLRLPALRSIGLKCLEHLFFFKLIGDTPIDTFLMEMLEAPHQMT

[2] = biological target: T2, Retinoic acid receptor alpha (Homo sapiens) (UniProt P10276); assay: Antagonist activity at RARalpha (unknown origin) assessed as inhibition of ATRA-induced response at 1 uM by luciferase reporter gene assay
T2 sequence (whole entry): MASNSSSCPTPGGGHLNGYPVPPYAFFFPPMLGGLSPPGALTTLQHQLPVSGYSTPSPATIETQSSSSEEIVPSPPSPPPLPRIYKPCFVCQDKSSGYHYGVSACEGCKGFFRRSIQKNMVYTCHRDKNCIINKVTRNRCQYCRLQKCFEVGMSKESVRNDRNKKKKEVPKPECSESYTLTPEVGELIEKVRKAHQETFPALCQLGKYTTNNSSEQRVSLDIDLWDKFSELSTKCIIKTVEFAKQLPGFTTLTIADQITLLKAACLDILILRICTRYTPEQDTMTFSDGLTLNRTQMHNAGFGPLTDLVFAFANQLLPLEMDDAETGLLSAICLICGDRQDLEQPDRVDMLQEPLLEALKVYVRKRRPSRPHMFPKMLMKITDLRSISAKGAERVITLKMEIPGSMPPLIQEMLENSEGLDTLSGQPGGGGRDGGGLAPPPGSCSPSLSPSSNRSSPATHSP

[3] = biological target: T1, Retinoic acid receptor RXR-alpha (Homo sapiens); assay: Agonist activity at human RXRalpha expressed in HEK293T cells at 1 uM by luciferase reporter gene assay; assay type: cell-based
[4] = biological target: T3, Peroxisome proliferator-activated receptor gamma (Homo sapiens) (UniProt P37231); assay: Agonist activity at PPARgamma (unknown origin) at 1 uM by luciferase reporter gene assay
T3 sequence (whole entry): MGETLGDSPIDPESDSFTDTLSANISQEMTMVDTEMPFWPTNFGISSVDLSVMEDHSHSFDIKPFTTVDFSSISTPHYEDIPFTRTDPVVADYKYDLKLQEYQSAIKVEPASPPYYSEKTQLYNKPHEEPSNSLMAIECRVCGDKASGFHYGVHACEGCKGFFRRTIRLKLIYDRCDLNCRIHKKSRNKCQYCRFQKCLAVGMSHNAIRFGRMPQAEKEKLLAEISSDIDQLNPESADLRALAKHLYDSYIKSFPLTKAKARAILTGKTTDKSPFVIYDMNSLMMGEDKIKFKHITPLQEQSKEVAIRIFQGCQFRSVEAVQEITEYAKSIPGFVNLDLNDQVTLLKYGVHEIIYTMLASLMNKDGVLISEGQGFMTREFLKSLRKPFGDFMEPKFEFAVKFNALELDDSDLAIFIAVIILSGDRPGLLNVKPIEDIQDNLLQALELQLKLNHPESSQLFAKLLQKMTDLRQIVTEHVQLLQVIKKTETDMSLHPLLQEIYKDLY

[5] = biological target: T4, Peroxisome proliferator-activated receptor delta (Homo sapiens) (UniProt Q03181); assay: Agonist activity at PPARdelta (unknown origin) at 1 uM by luciferase reporter gene assay
T4 sequence (whole entry): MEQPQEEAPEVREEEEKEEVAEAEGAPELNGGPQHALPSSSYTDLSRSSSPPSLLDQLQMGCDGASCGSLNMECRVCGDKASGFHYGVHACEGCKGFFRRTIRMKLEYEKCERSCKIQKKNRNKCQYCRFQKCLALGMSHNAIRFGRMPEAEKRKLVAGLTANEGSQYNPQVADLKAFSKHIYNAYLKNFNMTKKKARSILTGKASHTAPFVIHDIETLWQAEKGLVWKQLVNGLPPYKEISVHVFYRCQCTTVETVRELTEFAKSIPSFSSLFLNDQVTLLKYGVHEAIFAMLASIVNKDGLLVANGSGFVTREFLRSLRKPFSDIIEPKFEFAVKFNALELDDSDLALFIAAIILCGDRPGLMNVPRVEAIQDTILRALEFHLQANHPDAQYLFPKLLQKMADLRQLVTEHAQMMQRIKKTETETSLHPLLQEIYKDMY

[6] = biological target: T5, G-protein coupled bile acid receptor 1 (Homo sapiens) (UniProt Q8TDU6); assay: Agonist activity at TGR5 (unknown origin) at 1 uM by luciferase reporter gene assay; assay type: functional
T5 sequence (whole entry): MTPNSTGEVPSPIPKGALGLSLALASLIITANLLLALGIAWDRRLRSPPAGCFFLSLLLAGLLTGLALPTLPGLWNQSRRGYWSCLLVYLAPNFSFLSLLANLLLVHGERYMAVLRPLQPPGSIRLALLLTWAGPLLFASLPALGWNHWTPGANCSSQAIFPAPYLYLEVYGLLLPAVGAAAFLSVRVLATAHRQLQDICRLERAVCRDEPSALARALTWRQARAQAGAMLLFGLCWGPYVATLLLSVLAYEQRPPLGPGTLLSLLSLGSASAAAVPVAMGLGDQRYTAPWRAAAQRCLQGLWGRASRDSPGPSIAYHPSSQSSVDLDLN

3T3-L1 = assay: Antiadipogenic activity in mouse 3T3L1 cells assessed as reduction in intracellular lipid droplets after 6 days by Oil Red O staining based assay; assay type: functional, cell-based

inhibition [1]: inactive | inhibition [2]: inactive | Activity [3]: inactive | Activity [4]: inactive | Activity [5]: inactive | Activity [6]: inactive
SMILES: Cc1ccc2nc([C@H](CC3CCN(C(=O)C(C)C)CC3)N3C(=O)CN(c4ccc(Oc5ccccc5)cc4)C3=O)n(C)c2c1
Activity (3T3-L1): Dose-dependent effect
